Measurements taken from patent US4235803A (priority 1978, dated 1980).
Like-named read-outs stand apart in the source and are kept apart here.

Experiments:
[1] = tested on: S-180 sc. sarcoma; experiment: Tumor inhibiting effect on solid tumors: S-180 sc. sarcoma; type: in vivo, mouse
Experimental: (§1) Our tests were performed on various transplantable mouse and rat tumors. The following tumor strains were applied:
Mouse: SC-180 sc. sarcoma (solid)
(§2) The tests were always performed on animals of both sexes. At the beginning of the tests the average body weight of mice was 20 to 22 g, whereas that of rats 150 to 180 g. The animals were kept in plastic cages and fed with a standard laboratory animal feed (LATI, Godollo, Hungary). The animals received water ad libitum.
(§3) Solid tumors were transplanted by a subcutaneous implantation of tumor chips. Ascites type tumors were transplanted with 10^7 cells received from the ascites, whereas leukaemia type tumors were transplanted with spleen suspension. The treatment of the animals was started 24 hours after transplantation, with the only exception of Harding-Passey melanoma, when treatment was started on the 4th day after transplantation.
(§4) *Performed on groups of 8 animals

[2] = tested on: Yoshida sc. sarcoma; experiment: Comparison of the ED50 values on Yoshida sc. sarcoma of rats (transplanted solid tumor); type: in vivo, rat; conditions: for ED50: Rattus norvegicus, Yoshida sc. sarcoma of rats; for Relative activity: calculated by comparing the ED50 values
Experimental: as §1
Rat: Yoshida sc. sarcoma
as §2, §3

[3] = tested on: peripheral blood count (granulocytes, lymphocytes); experiment: Effect on peripheral blood count of rats (haematopoiesis); conditions: reference substances; in words
[4] = tested on: CFLP and BDF1 mice; conditions: same animals, Nemeth et al. 1972, cited from earlier work
[5] = tested on: S-180 sc. sarcoma; conditions: 200 mg/kg, 8 × i.p.; cited from earlier work
[6] = tested on: NK/Ly lymphoma; conditions: 125 mg/kg, 6 × i.p.; cited from earlier work
[7] = tested on: Walker sc. carcino-sarcoma; conditions: 100 mg/kg, 6 × i.p.; cited from earlier work
[8] = tested on: Harding-Passey melanoma; experiment: Tumor inhibiting effect on solid tumors: Harding-Passey melanoma; type: in vivo, mouse; conditions: treatment from 4th day after transplantation
Experimental: as §1
Harding-Passey melanoma
as §2, §3, §4

[9] = Acute toxicity (LD50) on CFLP and BDF1 mice; conditions: mouse, in vivo
Experimental: (§5) The tests were performed on groups consisting of 10 mice (5 males and 5 females), and the animals were kept under observation for 3 weeks.

[10] = tested on: CFLP and BDF1 mice; experiment: Acute toxicity (LD50) on CFLP and BDF1 mice; conditions: in words
Experimental: as §5

[11] = tested on: Walker sc. carcino-sarcoma; experiment: Tumor inhibiting effect on solid tumors: Walker sc. sarcoma; type: in vivo, rat; conditions: 10 mg/kg
Experimental: as §1
Walker sc. carcino-sarcoma
as §2, §3, §4

[12] = tested on: transplantable mouse and rat tumors; experiment: Cytostatic effect / growth inhibition on transplantable mouse and rat tumors (overall statements); type: in vivo; conditions: in words
Experimental: as §1, §2, §3

[13] = tested on: NK/Ly lymphoma; experiment: Tumor inhibiting effect on ascites type tumors: NK/Ly lymphoma; type: in vivo, mouse; conditions: 30 mg/kg, 4 × i.p.
Experimental: as §1, §2, §3

[14] = tested on: Ehrlich asc. carcinoma; experiment: Tumor inhibiting effect on ascites type tumors: Ehrlich ascites carcinoma; type: in vivo, mouse
Experimental: as §1, §2, §3
Healing=tumor-free survival of 90 days after transplantation

Q: With “1,6-dimesyl-1,6-dideoxy-D-mannitol [reference compound]” as the compound, how does the Inhibition ([1]; 300 mg/kg, 6 × i.p.) read?
A: The Inhibition was 31.

Q: What about the “Inhibition (toxicity reported in this column)” value ([1]; 500 mg/kg, 6 × i.p.) of the same compound?
A: Its value is “toxic”.

Q: With `CS(=O)(=O)OC[C@@H](O)[C@@H](O)[C@H](O)[C@H](O)COS(C)(=O)=O` [1,6-Dimesyl-D-mannitol (Mannogranol), 1,6-dimesyl-D-mannitol] as the compound, how does the ED50 ([2]; ip) read?
A: Its ED50 is 500 mg/kg.

Q: What about the ED50 ([2]; po) of the same compound?
A: The ED50 was 600 mg/kg.

Q: With `O[C@@H]([C@H](O)[C@H](O)CBr)[C@H](O)CBr` [1,6-dibromo-1,6-dideoxy-D-mannitol] as the compound, how does the “effect on haematopoiesis (formation of myeloid leukocytes)” value [3] read?
A: The value was “rather strong and selective action on the formation of myeloid leukocytes”.

Q: And the ED50 ([2]; ip)?
A: Its ED50 is 490 mg/kg.

Q: What about the ED50 ([2]; po) of the same compound?
A: The ED50 was 170 mg/kg.

Q: And the Relative activity ([2]; i.p.)?
A: The Relative activity was 0.04.

Q: What about the Relative activity ([2]; p.o.) of the same compound?
A: The Relative activity was 0.41.

Q: For `O[C@H]([C@H](O)[C@@H](O)CBr)[C@H](O)CBr` [1,6-dibromo-1,6-dideoxy-dulcitol], which LD50 value ([4]; i.p.) is on record?
A: The LD50 value was 900 mg/kg.

Q: And the LD50 value ([4]; p.o.)?
A: Its LD50 value is 1500 mg/kg.

Q: What about the Inhibition [5] of the same compound?
A: The Inhibition was 57.

Q: What about the “Prol. of life span” value [6] of the same compound?
A: The value was 90%.

Q: What about the Inhibition [7] of the same compound?
A: The Inhibition was 95.

Q: And the “effect on haematopoiesis (formation of myeloid leukocytes)” value [3]?
A: The value was “rather strong and selective action on the formation of myeloid leukocytes”.

Q: And the ED50 ([2]; ip)?
A: Its ED50 is 50 mg/kg.

Q: What about the Relative activity ([2]; i.p.) of the same compound?
A: The Relative activity was 0.4.

Q: What about the Inhibition ([8]; 200 mg/kg, 13 × i.p.) of the same compound?
A: Its Inhibition is 67.

Q: Which results are given for `CO[C@@H]([C@H](OC)[C@H](O)COS(C)(=O)=O)[C@H](O)COS(C)(=O)=O` [compound of formula (I), 1,6-dimesyl-3,4-dimethyl-D-mannitol]?
A: LD50 at 504 h ([9]; ip): 1000 mg/kg; LD50 at 504 h ([9]; po): 1100 mg/kg; toxicity [10]: low toxicity; oral resorption ([10]; inferred from i.p. vs oral LD50): excellent oral resorption; Inhibition ([11]; 5 × i.p.): 90; Inhibition ([11]; 5 × p.o.): 97; Inhibition ([1]; 100 mg/kg, 4 × p.o.): 50; Inhibition ([1]; 200 mg/kg, 6 × p.o.): 70; cytostatic effect [12]: strong cytostatic effect; cytostatic effect compared with Mannogranol, Myelobromol and Elobromol [12]: even more effective; cytostatic effect ([12]; listed as 1,6-dimesyl-3,4-dimethyl-D-mannitol): extremely potent cytostatic agent; inhibition of the growth of solid tumors ([12]; solid tumors, even in very low dosages compared to the toxic one): significantly inhibits the growth of solid tumors; Prol. of life span [13]: 101%; ED50 ([2]; ip): 20 mg/kg; ED50 ([2]; po): 70 mg/kg; Inhibition ([8]; 30 mg/kg, 10 × p.o.): 31; Inhibition ([8]; 100 mg/kg, 10 × p.o.): 52; Prol. of life span ([14]; 100 mg/kg, 4 × i.p.): 99.6%; effect on Ehrlich ascites tumor ([14]; in words): healing effect
